Here are results for 22 molecules from US11299467B2 (Antabio SAS, priority 2017, dated 2022).

Where two headings read alike, the source gives them in different places.

The target of one data set is NDM-1 (Klebsiella pneumoniae, UniProt C7C422). The experiment in a line: In vitro enzyme inhibition assay, purified NDM-1 (imipenem hydrolysis, UV 299 nm). The data set is classed as biochemical. How it is done: (§1) Enzyme inhibition assays were performed using purified MBL enzymes (NDM-1; VIM-1; VIM-2; IMP-1) in 10 mM HEPES buffer pH 7.5 in 96-well microtiter plates. Imipenem (300 μM) was used as substrate and its hydrolysis was followed at UV 299 nm during 10 mn every 30 seconds using a Perkin Elmer Envision UV fluorescence plate reader.
Sequence of NDM-1 (C7C422 29-270, looked up): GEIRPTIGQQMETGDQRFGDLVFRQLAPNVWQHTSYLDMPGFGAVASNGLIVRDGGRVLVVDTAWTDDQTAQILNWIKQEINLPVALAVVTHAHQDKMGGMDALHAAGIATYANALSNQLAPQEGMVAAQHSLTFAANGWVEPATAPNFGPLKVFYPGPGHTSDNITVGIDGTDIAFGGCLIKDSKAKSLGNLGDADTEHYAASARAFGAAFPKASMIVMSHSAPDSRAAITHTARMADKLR
(§2) Mean Ki values from multiple experiments are presented below.
(§3) Studies were undertaken to compare the compounds of the invention with structurally similar compounds (“Comp. x”). Experiments were conducted as described above.

Data set [1] can be described thus: Plasma stability of test compounds in human plasma. The data set is classed as in vitro ADME. The following applies: after 2 hours; 1 μM, 37° C. How it is done:
[table] Test compound and QC compound were incubated at a final concentration of 1 μM in plasma at 37° C. in shaker water bath with gentle shaking. At predetermined time points, reaction was terminated with 200 μL of acetonitrile containing internal standard and centrifuged at 4000×RCF, 4° C. for 20 minutes. Supernatant was separated and analyzed by LC-MS/MS. The following equation was used to determine the percentage remaining of test/QC compound following the procedure above: […]

Another data set concerns the target IMP-1 (Serratia marcescens, UniProt P52699). In words: In vitro enzyme inhibition assay, purified IMP-1 (imipenem hydrolysis, UV 299 nm). The class given is biochemical. The procedure:
as §1, §2, §3

The target of the next data set is VIM-1 (Pseudomonas aeruginosa, UniProt A0A0F7KYQ8). In words: In vitro enzyme inhibition assay, purified VIM-1 (imipenem hydrolysis, UV 299 nm). The class given is biochemical. How it is done: as §1, §2, §3
In the next data set the target is VIM-2 (Escherichia coli, UniProt Q5U7L7). In words: In vitro enzyme inhibition assay, purified VIM-2 (imipenem hydrolysis, UV 299 nm). The data set is classed as biochemical. The procedure: as §1, §2, §3
[2] abbreviates: comparative study bands, read-out: Ki NDM-1 (comparative study).
Where [3] appears, read: comparative study bands, read-out: Ki IMP-1 (comparative study).
[4] abbreviates: comparative study bands, read-out: Ki VIM-1 (comparative study).
[5] abbreviates: mean Ki from multiple experiments, imipenem 300 μM, Cheng-Prusoff from IC50, read-out: Ki VIM-2.
[6] abbreviates: mean Ki from multiple experiments, imipenem 300 μM, Cheng-Prusoff from IC50, read-out: Ki NDM-1.
The mark [7] stands for this setting: mean Ki from multiple experiments, imipenem 300 μM, Cheng-Prusoff from IC50, read-out: Ki IMP-1.
[8] abbreviates: mean Ki from multiple experiments, imipenem 300 μM, Cheng-Prusoff from IC50, read-out: Ki VIM-1.
Setting [9] is: comparative study bands, read-out: Ki VIM-2 (comparative study).

Sequence of IMP-1 (P52699 19-246, looked up, species assumed): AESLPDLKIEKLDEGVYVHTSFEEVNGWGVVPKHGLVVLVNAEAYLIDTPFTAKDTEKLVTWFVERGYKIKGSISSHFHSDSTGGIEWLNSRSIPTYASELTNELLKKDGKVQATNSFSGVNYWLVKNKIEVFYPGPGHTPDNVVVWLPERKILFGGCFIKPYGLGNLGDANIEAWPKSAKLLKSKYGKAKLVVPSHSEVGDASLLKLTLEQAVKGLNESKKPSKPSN

One may read the Ki as the equilibrium dissociation constant of an inhibitor or competing ligand from its target. For `COc1cc(S(=O)(=O)Nc2scnc2C(=O)O)ccc1NC(=O)CN` [Comp. E, reference compound], the Ki is 100 to 300 nM on NDM-1 (setting [2]), 600 to 5000 nM on IMP-1 (setting [3]) and 300 to 500 nM on VIM-1 (setting [4]). In addition, the “Stability in human plasma, % remaining” value in data set [1] is given as 29% remaining after 2 hours.

For `O=C(CNC1=NCCN1)Nc1cc(F)c(S(=O)(=O)Nc2scnc2C(=O)O)cc1F` [Example 10, 5-[[4-[[2-(4,5-dihydro-1H-imidazol-2-ylamino)acetyl]amino]-2,5-difluoro-phenyl]sulfonylamino]thiazole-4-carboxylic acid], the Ki on VIM-2 (setting [5]) was less than 20 nM; at NDM-1 (setting [6]) it was less than 50 nM; at IMP-1 (setting [7]), 500 to 1000 nM; on VIM-1 (setting [8]), less than 200 nM.

For `N=C(N)CC(=O)Nc1c(F)cc(S(=O)(=O)Nc2scnc2C(=O)O)cc1F` [Example 13, 5-[[4-[(3-amino-3-imino-propanoyl)amino]-3,5-difluoro-phenyl]sulfonylamino]thiazole-4-carboxylic acid], the inhibition constant Ki on VIM-2 (setting [5]) was 50 to 150 nM; at NDM-1 (setting [6]), less than 50 nM; at IMP-1 (setting [7]) it was 500 to 1000 nM; on VIM-1 (setting [8]), less than 200 nM.

With `N=C(N)NCC(=O)Nc1ccc(S(=O)(=O)Nc2scnc2C(=O)O)cc1Cl` [Example 17, 5-[[3-chloro-4-[(2-guanidinoacetyl)amino]phenyl]sulfonylamino]thiazole-4-carboxylic acid], the inhibition constant Ki on VIM-2 (setting [9]) is less than 20 nM; on VIM-2 (setting [5]) it was less than 20 nM; at NDM-1 (setting [2]), 30 to 100 nM; on NDM-1 (setting [6]), 50 to 200 nM; at IMP-1 (setting [3]), less than 150 nM; at IMP-1 (setting [7]) it was less than 500 nM. For the same molecule, the inhibition constant (Ki) on VIM-1 (setting [4]) is less than 150 nM; on VIM-1 (setting [8]), less than 200 nM.

For the molecule `N=C(N)NCC(=O)Nc1ccc(S(=O)(=O)Nc2scnc2C(=O)O)cc1OC(F)(F)F` [Example 18, 5-[[4-[(2-guanidinoacetyl)amino]-3-(trifluoromethoxy)phenyl]sulfonylamino] thiazole-4-carboxylic acid], the inhibition constant (Ki) is less than 20 nM at VIM-2 (setting [9]); less than 20 nM on VIM-2 (setting [5]); 30 to 100 nM on NDM-1 (setting [2]); 50 to 200 nM at NDM-1 (setting [6]); less than 150 nM at IMP-1 (setting [3]); less than 500 nM on IMP-1 (setting [7]). For the same molecule, the Ki on VIM-1 (setting [4]) was less than 150 nM; on VIM-1 (setting [8]), less than 200 nM.

Take `N=C(N)NCCC(=O)Nc1ccc(S(=O)(=O)Nc2scnc2C(=O)O)cc1F` [Example 19, 5-[[3-fluoro-4-(3-guanidinopropanoylamino)phenyl]sulfon-ylamino]thiazole-4-carboxylic acid]: the Ki fell in the range of 20 to 50 nM on VIM-2 (setting [5]), 50 to 200 nM at NDM-1 (setting [6]), 1000 to 10000 nM at IMP-1 (setting [7]) and 200 to 500 nM at VIM-1 (setting [8]).

Consider `CNC(=N)CC(=O)Nc1ccc(S(=O)(=O)Nc2scnc2C(=O)O)cc1F` [Example 22, 5-[[3-fluoro-4-[[3-imino-3-(methylamino)propanoyl]amino]phenyl]sulfonylamino]thiazole-4-carboxylic acid], for which the Ki at VIM-2 (setting [5]) is 50 to 150 nM; on NDM-1 (setting [6]), less than 50 nM; on IMP-1 (setting [7]), 1000 to 10000 nM; on VIM-1 (setting [8]), 200 to 500 nM.

`N=C(N)NCC(=O)Nc1ncc(S(=O)(=O)Nc2scnc2C(=O)O)s1` [Example 23, 5-[[2-[(2-guanidinoacetyl)amino]thiazol-5-yl]sulfonylamino]thiazole-4-carboxylic acid]: the Ki at VIM-2 (setting [5]) is 20 to 50 nM; on NDM-1 (setting [6]), less than 50 nM; at IMP-1 (setting [7]), 1000 to 10000 nM; at VIM-1 (setting [8]) it was less than 200 nM.

As to `N=C(N)NCCOC(=O)Nc1ccc(S(=O)(=O)Nc2scnc2C(=O)O)cc1F` [Example 27, 5-[[3-fluoro-4-(2-guanidinoethoxycarbonylamino)phenyl]sulfonylamino]thiazole-4-carboxylic acid], the inhibition constant Ki at VIM-2 (setting [5]) was less than 20 nM; on NDM-1 (setting [6]), less than 50 nM; on IMP-1 (setting [7]), 500 to 1000 nM; at VIM-1 (setting [8]) it was less than 200 nM.

As to `N=C(N)NC(=O)Nc1ccc(S(=O)(=O)Nc2scnc2C(=O)O)cc1F` [Example 28, 5-[[4-(carbamimidoylcarbamoyl-amino)-3-fluoro-phenyl]sulfonylamino] thiazole-4-carboxylic acid], the Ki on VIM-2 (setting [5]) is less than 20 nM; on NDM-1 (setting [6]), 50 to 200 nM; on IMP-1 (setting [7]), less than 500 nM; on VIM-1 (setting [8]) it was less than 200 nM.

Consider `N=C(N)NNC(=O)Nc1ccc(S(=O)(=O)Nc2scnc2C(=O)O)cc1F` [Example 29, 5-[[3-fluoro-4-(guanidinocarbamoylamino)phenyl]sulfonylamino]thiazole-4-carboxylic acid], for which the Ki on VIM-2 (setting [9]) was 20 to 50 nM; on VIM-2 (setting [5]) it was 20 to 50 nM; at NDM-1 (setting [2]) it was less than 30 nM; at NDM-1 (setting [6]), less than 50 nM; at IMP-1 (setting [3]), 600 to 5000 nM; at IMP-1 (setting [7]), 1000 to 10000 nM. Besides, the Ki lay in the range of 150 to 300 nM at VIM-1 (setting [4]) and 200 to 500 nM on VIM-1 (setting [8]).

In the case of `N=C(N)CNC(=O)Nc1ccc(S(=O)(=O)Nc2scnc2C(=O)O)cc1F` [Example 30, 5-[[4-[(2-amino-2-imino-ethyl)carbamoylamino]-3-fluoro-phenyl]sulfonylamino]thiazole-4-carboxylic acid], the inhibition constant Ki at VIM-2 (setting [5]) is 20 to 50 nM; on NDM-1 (setting [6]), less than 50 nM; at IMP-1 (setting [7]), 1000 to 10000 nM; on VIM-1 (setting [8]), 200 to 500 nM.

Consider `N=C(N)NCCSC(=O)Nc1ccc(S(=O)(=O)Nc2scnc2C(=O)O)cc1F` [Example 31, 5-[[3-fluoro-4-(2-guanidinoethylsulfanyl-carbonylamino)phenyl]sulfonylamino]thiazole-4-carboxylic acid], for which the Ki on VIM-2 (setting [5]) is 20 to 50 nM; at NDM-1 (setting [6]) it was less than 50 nM; at IMP-1 (setting [7]), less than 500 nM; at VIM-1 (setting [8]), less than 200 nM.

As for `O=C(CNC1=NCCN1)Nc1ccc(S(=O)(=O)Nc2scnc2C(=O)O)cc1F` [Example 32], the Ki at VIM-2 (setting [5]) fell in the range of 20 to 50 nM; at NDM-1 (setting [6]), 50 to 200 nM; on IMP-1 (setting [7]), 1000 to 10000 nM; on VIM-1 (setting [8]) it was 200 to 500 nM.

Consider `N#CNC(=N)NCC(=O)Nc1ccc(S(=O)(=O)Nc2scnc2C(=O)O)cc1F` [Example 34, 5-[[4-[[2-[(N-cyanocarbamimidoyl)amino]acetyl]amino]-3-fluoro-phenyl]sulfonylamino]thiazole-4-carboxylic acid], for which the inhibition constant Ki on VIM-2 (setting [5]) is 20 to 50 nM; on NDM-1 (setting [6]), less than 50 nM; on IMP-1 (setting [7]), less than 500 nM; at VIM-1 (setting [8]) it was 500 to 1000 nM.

Consider `N=C(N)CCC(=O)Nc1ccc(S(=O)(=O)Nc2scnc2C(=O)O)cc1F` [Example 35, 5-[[4-[(4-amino-4-imino-butanoyl)amino]-3-fluoro-phenyl]sulfonylamino]thiazole-4-carboxylic acid], for which the Ki is 20 to 50 nM on VIM-2 (setting [5]), less than 50 nM at NDM-1 (setting [6]), 500 to 1000 nM on IMP-1 (setting [7]) and less than 200 nM at VIM-1 (setting [8]).

In the case of `O=C(CCC1=NCCN1)Nc1ccc(S(=O)(=O)Nc2scnc2C(=O)O)cc1F` [Example 36, 5-[[4-[3-(4,5-dihydro-1H-imidazol-2-yl)propanoylamino]-3-fluoro-phenyl]sulfonylamino]thiazole-4-carboxylic acid], the Ki is 50 to 150 nM on VIM-2 (setting [5]), less than 50 nM on NDM-1 (setting [6]), 1000 to 10000 nM on IMP-1 (setting [7]) and 200 to 500 nM on VIM-1 (setting [8]).

On to `N=C(NCCN)NCC(=O)Nc1ccc(S(=O)(=O)Nc2scnc2C(=O)O)cc1F` [Example 39, 5-[[4-[[2-[[N-(2-aminoethyl)carbamimidoyl]amino]acetyl]amino]-3-fluoro-phenyl]sulfonylamino]thiazole-4-carboxylic acid], for which the inhibition constant Ki on VIM-2 (setting [5]) is 20 to 50 nM; at NDM-1 (setting [6]), 200 to 2000 nM; at IMP-1 (setting [7]), 1000 to 10000 nM; at VIM-1 (setting [8]), less than 200 nM.

With `N=C(N)NNCC(=O)Nc1ccc(S(=O)(=O)Nc2scnc2C(=O)O)cc1F` [Example 41, 5-[[4-[[2-(2-carbamimidoylhydrazino)acetyl]amino]-3-fluoro-phenyl]sulfonylamino]thiazole-4-carboxylic acid], the Ki on VIM-2 (setting [5]) is 20 to 50 nM; at NDM-1 (setting [6]) it was less than 50 nM; on IMP-1 (setting [7]), 500 to 1000 nM; on VIM-1 (setting [8]) it was 200 to 500 nM.

Consider `N=C(N)Nc1ccc(S(=O)(=O)Nc2scnc2C(=O)O)cc1` [Example 44, 5-[(4-guanidinophenyl)sulfonylamino]thiazole-4-carboxylic acid], for which the Ki on VIM-2 (setting [5]) is 50 to 150 nM; on NDM-1 (setting [6]), 200 to 2000 nM; on IMP-1 (setting [7]), 1000 to 10000 nM; on VIM-1 (setting [8]) it was 200 to 500 nM.

Take `N=C(N)NCC(=O)NCc1ccc(S(=O)(=O)Nc2scnc2C(=O)O)cc1F` [Example 45, 5-[[3-fluoro-4-[[(2-guanidinoacetyl)amino]methyl]phenyl]sulfonylamino]thiazole-4-carboxylic acid]: the inhibition constant Ki is 50 to 150 nM on VIM-2 (setting [5]), 200 to 2000 nM on NDM-1 (setting [6]), 1000 to 10000 nM at IMP-1 (setting [7]) and 500 to 1000 nM on VIM-1 (setting [8]).

Turning to `N=C(N)NCc1ccc(S(=O)(=O)Nc2scnc2C(=O)O)cc1F` [Example 46, 5-[[3-fluoro-4-(guanidinomethyl)phenyl]sulfonylamino]thiazole-4-carboxylic acid], the inhibition constant Ki is 50 to 150 nM at VIM-2 (setting [5]), 50 to 200 nM at NDM-1 (setting [6]), 1000 to 10000 nM at IMP-1 (setting [7]) and 200 to 500 nM at VIM-1 (setting [8]).
